According to patent US20050107303A1, “Health feed” (priority 2001, published 2005):

Test system: immunoglobulin A
Experiment: IgA production by mid colon biopsy samples of cats fed the diets, measured by ELISA
Assay type: in vivo, cat
Protocol: The study was carried out using eight members of the cat colonic health panel, which were known to be in good (intestinal) health. Cats were wormed and vaccinated 6 months prior to the start of the trial. The cats underwent the following trial regime; [table] Both the control diet and the glutamine enriched diet provided 405 kCal/100 g. The control diet was a dry diet containing approximately 4% water. The control diet comprised the following ingredients (˜is approximately): The glutamine-supplemented diet comprised 1% dry weight by weight glutamine provided as L-glutamine. The glutamine was sprayed onto the external surface of the dry control product. Levels of immunoglobulin A production by mid colon biopsy samples were measured by enzyme linked immunosorbent assay (ELISA). IgA ELISA test was obtained from Bethyl and performed as described in provided protocol sheets. In short, 96 well microplates were taken and coated with 100 μl anti-canine IgA overnight at 4° C. After each step the plates were washed with ELISA wash (50 Mm) Tris, pH 8.0, 0.1M NaCl, 0.05% Tween 20). Unreacted sites were blocked with tris-buffered saline (TBS) containing 1% bovine serum albumin (BSA) for 30 minutes. […] Finally, the absorbence was read spectrophotometrically at 450 nm using an ELISA plate reader.

NC(=O)CC[C@H](N)C(=O)O [Glutamine, L-glutamine]
IgA production by the colon, compared to the other diets (cats fed diets containing 1% glutamine, samples taken from below the transwell, P=0.048, GLM): significant increase | IgA production (ng/mg protein) Intestinal Sample (healthy cats, diet with 1% dry w/w L-glutamine for 28 days, mid colon biopsy samples, letters (a)/(b) mark a significant difference): 1003.1 ± 762.9 (b) ng/mg protein
